Article PMC3739763 (PLoS ONE, 2013)
Like-named read-outs stand apart in the source and are kept apart here.

How the values were obtained:
[1] = set-up: method as in PMID 12675874; details: cited from earlier work
[2] = set-up: method as in PMID 1643710, PMID 11721007; details: cited from earlier work
[3] = target: T1, Human serum albumin (HSA) (Homo sapiens, UniProt P02768); test: Binding displacement measurement using site markers (fluorescence, Stern-Volmer); details: protein:marker 1:1
T1 construct: I (residues 1–195), II (196–383), III (384–585); purchased Sigma Aldrich A1887
Procedure: Different site markers warfarin (WAR) for site I and diazepam (DIA) for site II [19], [20] were used for performing displacement experiments. […] The fluorescence emission spectra were recorded as mentioned in fluorescence measurements and the binding constant values of drug–protein–marker were evaluated using Stern–Volmer equation.

[4] = target: T1, Human serum albumin (HSA); test: Esterase-like activity of HSA toward p-NPA in presence of HA; format: biochemical
[5] = target: T1, Human serum albumin (HSA); test: Isothermal titration calorimetry (ITC), sequential model of two binding sites; details: for van't Hoff enthalpy: equation 12; for ΔCP (change in heat capacity): 25-37 °C
Procedure: Prior to the titration experiment, all solutions were degassed properly on a thermovac. The 1.44 mL sample and reference cell of the calorimeter were loaded with HSA and 20 mM sodium phosphate buffer (pH 7.4), respectively. […] The reference power was set at 16 µcal s^−1. […] Heats of dilution for the ligand and protein were subtracted from the integrated data before curve fitting. The data were fitted and analyzed with a sequential model of two binding sites using Origin 7.0 provided with the MicroCal instrument. Association constant (K b) and standard enthalpy change (ΔH°) were directly obtained after fitting while ΔG° was calculated from equation 8. The ΔS ^o was calculated using the equation: [drawing 13] (10) and change in specific heat capacity can be calculated from the equation:
[drawing 14] (11) Further the standard van’t Hoff enthalpy [drawing 15] at each temperature was calculated using equation: [drawing 16] (12) here, K(T1) and K(T2) are the values of binding constant at temperatures T 1 and T 2 respectively.

[6] = target: T1, Human serum albumin (HSA); test: Differential scanning calorimetry (DSC) thermostability of HSA in presence of HA; format: binding
Procedure: The differential scanning calorimetric measurements were carried out using VP-DSC microcalorimeter (MicroCal, Northampton, MA). The buffer and protein solutions were degassed under mild vacuum prior to the experiment. Samples were prepared in 20 mM sodium phosphate buffer, pH 7.4. […] 1∶0, 1∶5, and 1∶10 were performed from 25 to 90°C at a scan rate of 0.5°C/min. Data were analyzed using Origin software provided with the instrument to obtain the temperature at the midpoint of the unfolding transition (T m) and calorimetric enthalpy (ΔH°).

[7] = target: T1, Human serum albumin (HSA); test: Steady state fluorescence quenching of HSA by HA; format: binding; details: for KSV (Stern-Volmer quenching constant) / n (binding sites): pH 7.4, HSA 5 µM; for TΔS°: van't Hoff
Procedure: Fluorescence emission spectra were recorded in range of 300–400 nm on a Shimadzu 5301PC fluorescence spectrophotometer equipped with water circulator (Julabo Eyela) at excitation wavelength of 295 nm. Both the excitation and emission slits were set at 3 nm. […] Respective blanks were subtracted. […] Furthermore if a quencher, Q, form complex, Q n B, with protein B and have ‘n’ multiple (equivalent and independent) binding sites then quenching reaction is often represented as: [drawing 5] (2) and its binding constant (Kb ) is given by equation 3:[18]
[drawing 6] (3) If the total amount of protein (with and without bound Q) is [B o], then [drawing 7] (4) [drawing 8] (5) where [B] is the concentration of the unbound protein. The fluorescence intensity is proportional to the protein concentration as described below: [drawing 9] (6) then, relationship between the fluorescence intensity and unbound protein is expressed as:
[drawing 10] (7) So, if the formation of a nonfluorescent fluorophore–quencher complex occurs, then, the value of K b can be obtained by using equation 7.

T1 sequence (P02768 25-609): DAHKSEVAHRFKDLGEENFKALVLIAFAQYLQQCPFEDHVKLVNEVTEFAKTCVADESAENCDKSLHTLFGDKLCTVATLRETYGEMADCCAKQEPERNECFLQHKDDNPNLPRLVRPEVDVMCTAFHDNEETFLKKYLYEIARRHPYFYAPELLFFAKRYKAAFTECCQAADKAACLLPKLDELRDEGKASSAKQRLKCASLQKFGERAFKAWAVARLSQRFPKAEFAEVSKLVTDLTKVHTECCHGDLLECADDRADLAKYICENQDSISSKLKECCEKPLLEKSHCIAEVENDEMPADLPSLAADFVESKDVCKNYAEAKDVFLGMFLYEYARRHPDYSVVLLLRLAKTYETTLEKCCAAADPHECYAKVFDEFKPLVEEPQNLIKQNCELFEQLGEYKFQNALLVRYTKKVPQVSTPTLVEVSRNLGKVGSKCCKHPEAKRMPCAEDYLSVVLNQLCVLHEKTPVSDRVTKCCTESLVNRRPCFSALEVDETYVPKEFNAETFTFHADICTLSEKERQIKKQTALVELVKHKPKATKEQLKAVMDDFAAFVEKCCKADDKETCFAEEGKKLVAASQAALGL

Compound: O=C(O)CNC(=O)c1ccccc1 [HA, hippuric acid]
- concentration of HA ([1]; healthy individual): less than 5 mg/L
- concentration of HA ([1]; patients with end-stage renal disease): higher than 247±112 mg/L
- elimination of HA through hemodialysis [2]: 64%
- K sv of HSA-HA in presence of site marker ([3]; in presence of DIA (site II marker)): (2.03±0.03)× 10^3 M^−1
- K sv of HSA-HA in presence of site marker ([3]; in presence of WAR (site I marker)): (2.74±0.04)×10^3 M^−1
- Vmax for hydrolysis of p-NPA by HSA ([4]; HSA:HA 1∶0.5, HSA 15 µM, 25 °C): 0.16 ± 0.02 µM/s
- Vmax for hydrolysis of p-NPA by HSA ([4]; HSA:HA 1∶1, HSA 15 µM, 25 °C): 0.16 ± 0.01 µM/s
- Vmax for hydrolysis of p-NPA by HSA ([4]; HSA:HA 1∶2, HSA 15 µM, 25 °C): 0.16 ± 0.02 µM/s
- Vmax for hydrolysis of p-NPA by HSA ([4]; HSA:HA 1∶3, HSA 15 µM, 25 °C): 0.16 ± 0.01 µM/s
- Ki ([4]; competitive, substrate p-NPA, 25 °C, read-out: K i (inhibitor constant) for esterase-like activity of HSA): 21.7 µM
- Mode of inhibition of esterase-like activity of HSA ([4]; substrate p-NPA): competitively
- van't Hoff enthalpy ([5]; 25 °C, high affinity site): -50.12 kJ/mol
- van't Hoff enthalpy ([5]; 25 °C, low affinity site): -103.3 kJ/mol
- ΔG° ([5]; High affinity site, 25 °C): -25.3 ± 0.418 kJ/mol
- ΔH° ([5]; High affinity site, 25 °C): -18.5 ± 1.92 kJ/mol
- TΔS° ([5]; High affinity site, 30 °C): 3.18 ± 0.25 kJ/mol
- ΔG° ([5]; High affinity site, 30 °C): -24.9 ± 0.042 kJ/mol
- ΔH° ([5]; High affinity site, 30 °C): -21.7 ± 0.29 kJ/mol
- TΔS° ([5]; High affinity site, 37 °C): -0.837 ± 0.042 kJ/mol
- ΔG° ([5]; High affinity site, 37 °C): -24.8 ± 0.084 kJ/mol
- ΔH° ([5]; High affinity site, 37 °C): -25.7 ± 0.628 kJ/mol
- TΔS° ([5]; Low affinity site, 25 °C): -12 ± 1.67 kJ/mol
- ΔG° ([5]; Low affinity site, 25 °C): -19.6 ± 0.418 kJ/mol
- ΔH° ([5]; Low affinity site, 25 °C): -31.7 ± 4.02 kJ/mol
- TΔS° ([5]; Low affinity site, 30 °C): -22.6 ± 1.46 kJ/mol
- ΔG° ([5]; Low affinity site, 30 °C): -18.2 ± 0.084 kJ/mol
- ΔH° ([5]; Low affinity site, 30 °C): -40.8 ± 1.42 kJ/mol
- TΔS° ([5]; Low affinity site, 37 °C): -28 ± 1.51 kJ/mol
- ΔG° ([5]; Low affinity site, 37 °C): -18.5 ± 0.13 kJ/mol
- ΔH° ([5]; Low affinity site, 37 °C): -46.48 ± 2.89 kJ/mol
- K b (order of magnitude) ([5]; high affinity site): ~10^4
- ΔCP (change in heat capacity) ([5]; high affinity site): −0.14±0.11 kcal mol^−1°C^−1
- K b (order of magnitude) ([5]; low affinity site): ~10^3
- ΔCP (change in heat capacity) ([5]; low affinity site): −0.28±0.24 kcal mol^−1°C^−1
- Tm of first sub-transition of HSA (head drawing C00030) ([6]; HSA:HA 1∶5, HSA 18 µM): 57.25±0.01 °C
- Tm of second sub-transition of HSA (head drawing C00031) ([6]; HSA:HA 1∶5, HSA 18 µM): 62.51±0.09 °C
- Tm of third sub-transition of HSA (head drawing C00032) ([6]; HSA:HA 1∶5, HSA 18 µM): 73.87±0.04 °C
- ΔH° of first sub-transition (head drawing C00033) ([6]; HSA:HA 1∶5, HSA 18 µM): 227.7 ± 0.418 kJ/mol
- ΔH° of second sub-transition (head drawing C00034) ([6]; HSA:HA 1∶5, HSA 18 µM): 234.8 ± 0.502 kJ/mol
- ΔH° of third sub-transition (head drawing C00035) ([6]; HSA:HA 1∶5, HSA 18 µM): 58.24 ± 0.29 kJ/mol
- Tm of first sub-transition of HSA (head drawing C00030) ([6]; HSA:HA 1∶10, HSA 18 µM): 58.36±0.08 °C
- Tm of second sub-transition of HSA (head drawing C00031) ([6]; HSA:HA 1∶10, HSA 18 µM): 63.83±0.02 °C
- Tm of third sub-transition of HSA (head drawing C00032) ([6]; HSA:HA 1∶10, HSA 18 µM): 73.96±0.03 °C
- ΔH° of first sub-transition (head drawing C00033) ([6]; HSA:HA 1∶10, HSA 18 µM): 286.5 ± 3.35 kJ/mol
- ΔH° of second sub-transition (head drawing C00034) ([6]; HSA:HA 1∶10, HSA 18 µM): 240 ± 2.51 kJ/mol
- ΔH° of third sub-transition (head drawing C00035) ([6]; HSA:HA 1∶10, HSA 18 µM): 58.16 ± 0.38 kJ/mol
- k q (bimolecular rate constant) ([7]; 25 °C): (1.36±0.06 ) ×10^12 M^−1 s^−1
- ΔG° ([7]; 25 °C): -21.8 ± 0.084 kJ/mol
- KSV (Stern-Volmer quenching constant) ([7]; 25 °C): (7.80±0.36) ×10^3 M^−1
- n (binding sites) ([7]; 25 °C): 0.98±0.02
- TΔS° ([7]; 25 °C): -98.24 ± 1 kJ/mol
- k q (bimolecular rate constant) ([7]; 30 °C): (5.77±0.03 ) ×10^11 M^−1 s^−1
- ΔG° ([7]; 30 °C): -20.4 ± 0.25 kJ/mol
- KSV (Stern-Volmer quenching constant) ([7]; 30 °C): (3.30±0.02) ×10^3 M^−1
- n (binding sites) ([7]; 30 °C): 0.99±0.01
- TΔS° ([7]; 30 °C): -99.91 ± 1 kJ/mol
- k q (bimolecular rate constant) ([7]; 37 °C): (2.29±0.01 ) ×10^11 M^−1 s^−1
- ΔG° ([7]; 37 °C): -17.9 ± 0.042 kJ/mol
- KSV (Stern-Volmer quenching constant) ([7]; 37 °C): (1.31±0.08) ×10^3 M^−1
- n (binding sites) ([7]; 37 °C): 0.97±0.02
- TΔS° ([7]; 37 °C): -102.2 ± 1.05 kJ/mol
- K b (order of magnitude) ([7]; spectroscopic results, single site): ~10^3
